Reference: publication PMC11370357 (bioRxiv, 2024)

Target: T1, GPRC6A (Homo sapiens, UniProt Q5T6X5)
T1 sequence (Q5T6X5 19-926): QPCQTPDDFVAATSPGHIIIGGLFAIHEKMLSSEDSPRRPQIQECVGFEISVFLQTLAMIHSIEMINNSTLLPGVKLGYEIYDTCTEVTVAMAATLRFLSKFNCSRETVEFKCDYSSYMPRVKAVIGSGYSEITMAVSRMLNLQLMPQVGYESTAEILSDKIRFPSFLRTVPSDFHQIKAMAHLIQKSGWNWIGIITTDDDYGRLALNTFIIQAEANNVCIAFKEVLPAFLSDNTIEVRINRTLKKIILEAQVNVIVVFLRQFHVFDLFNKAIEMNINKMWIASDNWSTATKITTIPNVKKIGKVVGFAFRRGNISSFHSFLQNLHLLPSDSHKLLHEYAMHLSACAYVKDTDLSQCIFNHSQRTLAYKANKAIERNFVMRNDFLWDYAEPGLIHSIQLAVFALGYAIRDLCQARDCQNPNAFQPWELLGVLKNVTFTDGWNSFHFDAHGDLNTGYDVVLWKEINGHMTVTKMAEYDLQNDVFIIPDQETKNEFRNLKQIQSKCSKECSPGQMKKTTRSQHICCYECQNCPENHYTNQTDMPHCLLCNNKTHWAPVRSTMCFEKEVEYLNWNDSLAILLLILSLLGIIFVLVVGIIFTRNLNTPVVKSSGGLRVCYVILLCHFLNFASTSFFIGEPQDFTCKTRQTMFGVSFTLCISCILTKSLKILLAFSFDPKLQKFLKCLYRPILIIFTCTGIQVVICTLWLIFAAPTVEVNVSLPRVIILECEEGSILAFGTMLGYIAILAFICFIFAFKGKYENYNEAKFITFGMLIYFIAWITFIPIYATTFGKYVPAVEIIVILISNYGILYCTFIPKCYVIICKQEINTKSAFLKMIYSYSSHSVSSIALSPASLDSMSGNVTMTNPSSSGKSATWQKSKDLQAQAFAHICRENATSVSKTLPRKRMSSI
Format: cell-based

EC50: 284 µM
SMILES: CN(C)C(=N)N=C(N)N [metformin, 1,1-dimethylbiguanide]
